Assay results reported in ChEMBL document CHEMBL4819132, “Discovery of novel tripeptide propylene oxide proteasome inhibitors for the treatment of multiple myeloma” (Bioorg Med Chem, 2021).

What was measured:
Assay type in all cases: ADME, organism-based
[1] = Tmax in Sprague-Dawley rat at 10 mg/kg, ig measured by LC-MS/MS analysis; settings: in vivo, po
[2] = Tmax in Sprague-Dawley rat at 1 mg/kg, iv measured by LC-MS/MS analysis; settings: in vivo
[3] = AUClast in Sprague-Dawley rat at 10 mg/kg, ig measured by LC-MS/MS analysis; parameters: dose 10 mg/kg; settings: in vivo, po
[4] = AUClast in Sprague-Dawley rat at 1 mg/kg, iv measured by LC-MS/MS analysis; parameters: dose 1 mg/kg; settings: in vivo
[5] = Mean residence time in Sprague-Dawley rat at 10 mg/kg, ig measured by LC-MS/MS analysis; settings: in vivo, po
[6] = Mean residence time in Sprague-Dawley rat at 1 mg/kg, iv measured by LC-MS/MS analysis; settings: in vivo
[7] = Bioavailability in Sprague-Dawley rat at 10 mg/kg, ig measured by LC-MS/MS analysis; settings: in vivo, po

SMILES: COC[C@H](NC(=O)c1cc(C)on1)C(=O)NCC(=O)N[C@@H](CC(C)C)C(=O)[C@@]1(C)CO1
- Tmax [1]: 13.2 min
- Tmax [2]: 4.8 min
- AUClast [3]: 119 ng·mL·h
- AUClast [4]: 107 ng·mL·h
- MRT [5]: 51.6 min
- MRT [6]: 19.8 min
- bioavailability [7]: 13.5%

SMILES: COC[C@H](NC(=O)c1cc(C)on1)C(=O)NCC(=O)N[C@@H](Cc1ccccc1)C(=O)[C@@]1(C)CO1
- Tmax [1]: 10.2 min
- Tmax [2]: 4.8 min
- AUClast [3]: 42 ng·mL·h
- AUClast [4]: 72 ng·mL·h
- MRT [5]: 36.6 min
- MRT [6]: 8.4 min
- bioavailability [7]: 6.3%
